Key:
[1] = tested on: Acinetobacter baumannii; test: Growth testing against ESKAPE pathogens: Acinetobacter baumannii; assay type: cell-based; set-up: key: Growth; X: No Growth
Description: (§1) Six analogs (FIG. 2) of the ciprofloxacin-N thiolated β-lactam were successfully synthesized. All these compounds were then tested against ESKAPE pathogens for bioactivity. The ESKAPE pathogens are a collection of six deadly superbugs, Enterococcus faecium, Staphylococcus aureus, Klebsiella pneumoniae, Acinetobacter baumannii, Pseudomonas aeruginosa, and Enterobacter species. […] G denotes growth and X denotes no growth in the tables.

[2] = tested on: Staphylococcus aureus; test: Growth testing against ESKAPE pathogens: Staphylococcus aureus; assay type: cell-based; set-up: key to Activity against Staphylococcus aureus (growth observed): Growth; X: No Growth
Description: as §1

[3] = tested on: Pseudomonas aeruginosa; test: Growth testing against ESKAPE pathogens: Pseudomonas aeruginosa; assay type: cell-based; set-up: key: Growth; X: No Growth
Description: as §1

[4] = tested on: Klebesiella pneumonia; test: Growth testing against ESKAPE pathogens: Klebesiella pneumonia; assay type: cell-based, Klebsiella pneumoniae; set-up: key: Growth; X: No Growth
Description: as §1

[5] = tested on: Enterococcus faecium; test: Growth testing against ESKAPE pathogens: Enterococcus faecium; assay type: cell-based; set-up: key: Growth; X: No Growth
Description: as §1

CCCCCC(=O)N1CCN(c2cc3c(cc2F)c(=O)c(C(=O)OC2C(=O)N(SC)C2c2ccccc2)cn3C2CC2)CC1 (centres unmarked) [Lactam 126]
G: Activity against Acinetobacter baumannii (growth observed) ([1]; 1 μg/ml) | Activity against Acinetobacter baumannii (growth observed) ([1]; 2 μg/ml) | Activity against Acinetobacter baumannii (growth observed) ([1]; 3 μg/ml) | Activity against Acinetobacter baumannii (growth observed) ([1]; 4 μg/ml) | Activity against Acinetobacter baumannii (growth observed) ([1]; 5 μg/ml) | Activity against Acinetobacter baumannii (growth observed) ([1]; 6 μg/ml) | Activity against Acinetobacter baumannii (growth observed) ([1]; 7 μg/ml) | Activity against Acinetobacter baumannii (growth observed) ([1]; 8 μg/ml) | Activity against Acinetobacter baumannii (growth observed) ([1]; 9 μg/ml) | Activity against Acinetobacter baumannii (growth observed) ([1]; 10 μg/ml) | Activity against Acinetobacter baumannii (growth observed) ([1]; 25 μg/ml) | Activity against Staphylococcus aureus (growth observed) ([2]; 1 μg/ml) | Activity against Staphylococcus aureus (growth observed) ([2]; 2 μg/ml) | Activity against Staphylococcus aureus (growth observed) ([2]; 3 μg/ml) | Activity against Staphylococcus aureus (growth observed) ([2]; 4 μg/ml) | Activity against Staphylococcus aureus (growth observed) ([2]; 5 μg/ml) | Activity against Staphylococcus aureus (growth observed) ([2]; 6 μg/ml) | Activity against Staphylococcus aureus (growth observed) ([2]; 7 μg/ml) | Activity against Staphylococcus aureus (growth observed) ([2]; 8 μg/ml) | Activity against Staphylococcus aureus (growth observed) ([2]; 9 μg/ml) | Activity against Staphylococcus aureus (growth observed) ([2]; 10 μg/ml) | Activity against Staphylococcus aureus (growth observed) ([2]; 25 μg/ml) | Activity against Pseudomonas aeruginosa (growth observed) ([3]; 1 μg/ml) | Activity against Pseudomonas aeruginosa (growth observed) ([3]; 2 μg/ml) | Activity against Pseudomonas aeruginosa (growth observed) ([3]; 3 μg/ml) | Activity against Pseudomonas aeruginosa (growth observed) ([3]; 4 μg/ml) | Activity against Pseudomonas aeruginosa (growth observed) ([3]; 5 μg/ml) | Activity against Pseudomonas aeruginosa (growth observed) ([3]; 6 μg/ml) | Activity against Pseudomonas aeruginosa (growth observed) ([3]; 7 μg/ml) | Activity against Pseudomonas aeruginosa (growth observed) ([3]; 8 μg/ml) | Activity against Pseudomonas aeruginosa (growth observed) ([3]; 9 μg/ml) | Activity against Pseudomonas aeruginosa (growth observed) ([3]; 10 μg/ml) | Activity against Pseudomonas aeruginosa (growth observed) ([3]; 25 μg/ml) | Activity against Klebesiella pneumonia (growth observed) ([4]; 1 μg/ml) | Activity against Klebesiella pneumonia (growth observed) ([4]; 2 μg/ml) | Activity against Klebesiella pneumonia (growth observed) ([4]; 3 μg/ml) | Activity against Klebesiella pneumonia (growth observed) ([4]; 4 μg/ml) | Activity against Klebesiella pneumonia (growth observed) ([4]; 5 μg/ml) | Activity against Klebesiella pneumonia (growth observed) ([4]; 6 μg/ml) | Activity against Klebesiella pneumonia (growth observed) ([4]; 7 μg/ml) | Activity against Klebesiella pneumonia (growth observed) ([4]; 8 μg/ml) | Activity against Klebesiella pneumonia (growth observed) ([4]; 9 μg/ml) | Activity against Klebesiella pneumonia (growth observed) ([4]; 10 μg/ml) | Activity against Klebesiella pneumonia (growth observed) ([4]; 25 μg/ml) | Activity against Enterococcus faecium (growth observed) ([5]; 1 μg/ml) | Activity against Enterococcus faecium (growth observed) ([5]; 2 μg/ml) | Activity against Enterococcus faecium (growth observed) ([5]; 3 μg/ml) | Activity against Enterococcus faecium (growth observed) ([5]; 4 μg/ml) | Activity against Enterococcus faecium (growth observed) ([5]; 5 μg/ml) | Activity against Enterococcus faecium (growth observed) ([5]; 6 μg/ml) | Activity against Enterococcus faecium (growth observed) ([5]; 7 μg/ml) | Activity against Enterococcus faecium (growth observed) ([5]; 8 μg/ml) | Activity against Enterococcus faecium (growth observed) ([5]; 9 μg/ml) | Activity against Enterococcus faecium (growth observed) ([5]; 10 μg/ml) | Activity against Enterococcus faecium (growth observed) ([5]; 25 μg/ml)

CCCCCCC(=O)N1CCN(c2cc3c(cc2F)c(=O)c(C(=O)OC2C(=O)N(SC)C2c2ccccc2)cn3C2CC2)CC1 (centres unmarked) [Lactam 127]
G: Activity against Acinetobacter baumannii (growth observed) ([1]; 1 μg/ml) | Activity against Acinetobacter baumannii (growth observed) ([1]; 2 μg/ml) | Activity against Acinetobacter baumannii (growth observed) ([1]; 3 μg/ml) | Activity against Acinetobacter baumannii (growth observed) ([1]; 4 μg/ml) | Activity against Acinetobacter baumannii (growth observed) ([1]; 5 μg/ml) | Activity against Acinetobacter baumannii (growth observed) ([1]; 6 μg/ml) | Activity against Acinetobacter baumannii (growth observed) ([1]; 7 μg/ml) | Activity against Acinetobacter baumannii (growth observed) ([1]; 8 μg/ml) | Activity against Acinetobacter baumannii (growth observed) ([1]; 9 μg/ml) | Activity against Acinetobacter baumannii (growth observed) ([1]; 10 μg/ml) | Activity against Acinetobacter baumannii (growth observed) ([1]; 25 μg/ml) | Activity against Staphylococcus aureus (growth observed) ([2]; 1 μg/ml) | Activity against Staphylococcus aureus (growth observed) ([2]; 2 μg/ml) | Activity against Staphylococcus aureus (growth observed) ([2]; 3 μg/ml) | Activity against Staphylococcus aureus (growth observed) ([2]; 4 μg/ml) | Activity against Staphylococcus aureus (growth observed) ([2]; 5 μg/ml) | Activity against Staphylococcus aureus (growth observed) ([2]; 6 μg/ml) | Activity against Staphylococcus aureus (growth observed) ([2]; 7 μg/ml) | Activity against Staphylococcus aureus (growth observed) ([2]; 8 μg/ml) | Activity against Staphylococcus aureus (growth observed) ([2]; 9 μg/ml) | Activity against Staphylococcus aureus (growth observed) ([2]; 10 μg/ml) | Activity against Staphylococcus aureus (growth observed) ([2]; 25 μg/ml) | Activity against Pseudomonas aeruginosa (growth observed) ([3]; 1 μg/ml) | Activity against Pseudomonas aeruginosa (growth observed) ([3]; 2 μg/ml) | Activity against Pseudomonas aeruginosa (growth observed) ([3]; 3 μg/ml) | Activity against Pseudomonas aeruginosa (growth observed) ([3]; 4 μg/ml) | Activity against Pseudomonas aeruginosa (growth observed) ([3]; 5 μg/ml) | Activity against Pseudomonas aeruginosa (growth observed) ([3]; 6 μg/ml) | Activity against Pseudomonas aeruginosa (growth observed) ([3]; 7 μg/ml) | Activity against Pseudomonas aeruginosa (growth observed) ([3]; 8 μg/ml) | Activity against Pseudomonas aeruginosa (growth observed) ([3]; 9 μg/ml) | Activity against Pseudomonas aeruginosa (growth observed) ([3]; 10 μg/ml) | Activity against Pseudomonas aeruginosa (growth observed) ([3]; 25 μg/ml) | Activity against Klebesiella pneumonia (growth observed) ([4]; 1 μg/ml) | Activity against Klebesiella pneumonia (growth observed) ([4]; 2 μg/ml) | Activity against Klebesiella pneumonia (growth observed) ([4]; 3 μg/ml) | Activity against Klebesiella pneumonia (growth observed) ([4]; 4 μg/ml) | Activity against Klebesiella pneumonia (growth observed) ([4]; 5 μg/ml) | Activity against Klebesiella pneumonia (growth observed) ([4]; 6 μg/ml) | Activity against Klebesiella pneumonia (growth observed) ([4]; 7 μg/ml) | Activity against Klebesiella pneumonia (growth observed) ([4]; 8 μg/ml) | Activity against Klebesiella pneumonia (growth observed) ([4]; 9 μg/ml) | Activity against Klebesiella pneumonia (growth observed) ([4]; 10 μg/ml) | Activity against Klebesiella pneumonia (growth observed) ([4]; 25 μg/ml) | Activity against Enterococcus faecium (growth observed) ([5]; 1 μg/ml) | Activity against Enterococcus faecium (growth observed) ([5]; 2 μg/ml) | Activity against Enterococcus faecium (growth observed) ([5]; 3 μg/ml) | Activity against Enterococcus faecium (growth observed) ([5]; 4 μg/ml) | Activity against Enterococcus faecium (growth observed) ([5]; 5 μg/ml) | Activity against Enterococcus faecium (growth observed) ([5]; 6 μg/ml) | Activity against Enterococcus faecium (growth observed) ([5]; 7 μg/ml) | Activity against Enterococcus faecium (growth observed) ([5]; 8 μg/ml) | Activity against Enterococcus faecium (growth observed) ([5]; 9 μg/ml) | Activity against Enterococcus faecium (growth observed) ([5]; 10 μg/ml) | Activity against Enterococcus faecium (growth observed) ([5]; 25 μg/ml)
